system: c-Myc; assay: c-Myc immunofluorescence assay; type: cell-based, human; conditions: A549 cells, 24 hours treatment, anti-c-Myc immunofluorescence
Experimental: A549 human non-small cell lung carcinoma cells were treated for 24 hours with increasing compound concentration, cells were fixed and stained with a nuclei stain (DAPI) and anti-c-Myc fluorescent antibody. The c-Myc signal was quantified by image analysis, and data was exported and analyzed using TIBCO Spotfire® (TIBCO Corporation). Dose response curves were generated and fitted with logaristic regression to calculate potency (EC50 values). Potency values are presented in Table 2 for all compounds and are shown for selected compounds (FIG. 4).
A549 cells were grown in 384-wells plates (Perkin Elmer, Cat. 6057300) for 48 hours, treated with compounds and then fixed for 20 min in 4% paraformaldehyde. After that permeabilization was done using 0.1% Triton X-100 in PBS for 20 min. Primary anti-c-Myc antibody (Abcam, ab32072) staining was performed for 90 min at room temperature. Cells then were washed twice with PBS and incubated with secondary antibody (Abcam, ab150075) for 90 min at room temperature. Nuclei were stained with DAPI for 10 min and washed twice with PBS.
Cell images were taken with Operetta (Perkin Elmer, USA), a wide-field fluorescence microscope at 20× magnification. After acquisition, the images were transferred to Columbus software (Perkin-Elmer) for image analysis. In Columbus, cells were identified by their nucleus, using the “Find Nuceli” module and cytoplasm was detected based on the secondary antibody channel. Subsequently, the fluorescent signal was enumerated in the identified cell region. Then data was exported to a data analysis and visualization software, Tibco Spotfire, USA.

| Compound | Myc Efficacy (−LogEC50) |
| --- | --- |
| O=C(NCCCN1CCC(F)CC1)c1ccc2c(c1)sc1nc(-c3ccc(C4CC(O)CN4)cc3F)cn12 (stereo not shown) [Compound 493, 2-(2-fluoro-4-(4-hydroxypyrrolidin-2-yl)phenyl)-N-(3-(4-fluoropiperidin-1-yl)propyl)benzo[d]imidazo[2,1-b]thiazole-7-carboxamide] | +++ (+++ ≥6) |
| CNC(=O)c1ccc2c(c1)sc1nc(-c3ccc(C4CCCN4)cc3F)cn12 (stereo not shown) [Compound 498, 2-(2-fluoro-4-(pyrrolidin-2-yl)phenyl)-N-methylbenzo[d]imidazo[2,1-b]thiazole-7-carboxamide] | +++ (+++ ≥6) |
| CN1CCC(NC(=O)c2ccc3c(c2)sc2nc(-c4ccc(C5CCCN5)cc4F)cn23)CC1 (stereo not shown) [Compound 500, 2-(2-fluoro-4-(pyrrolidin-2-yl)phenyl)-N-(1-methylpiperidin-4-yl)benzo[d]imidazo[2,1-b]thiazole-7-carboxamide] | +++ (+++ ≥6) |
| O=C(NCCCN1CCC(F)CC1)c1cc2sc3nc(-c4ccc(C5CCCN5)cc4F)cn3c2cn1 (stereo not shown) [Compound 501, 2-(2-fluoro-4-(pyrrolidin-2-yl)phenyl)-N-(3-(4-fluoropiperidin-1-yl)propyl)imidazo[2′,1′:2,3]thiazolo[4,5-c]pyridine-7-carboxamide] | +++ (+++ ≥6) |
| CN1CCC(NC(=O)c2ccc3c(c2)sc2nc(-c4ccc([C@H]5CCCN5)cc4F)cn23)CC1 [Compound 503R, (R)-2-(2-fluoro-4-(pyrrolidin-2-yl)phenyl)-N-(1-methylpiperidin-4-yl)benzo[d]imidazo[2,1-b]thiazole-7-carboxamide] | +++ (+++ ≥6) |
| CN1CCC(NC(=O)c2ccc3c(c2)sc2nc(-c4ccc([C@@H]5CCCN5)cc4F)cn23)CC1 [Compound 503S, (S)-2-(2-fluoro-4-(pyrrolidin-2-yl)phenyl)-N-(1-methylpiperidin-4-yl)benzo[d]imidazo[2,1-b]thiazole-7-carboxamide] | +++ (+++ ≥6) |
| CNC(=O)c1ccc2c(c1)sc1nc(-c3ccc(C4CCNC4)cc3F)cn12 (stereo not shown) [Compound 504, 2-(2-fluoro-4-(pyrrolidin-3-yl)phenyl)-N-methylbenzo[d]imidazo[2,1-b]thiazole-7-carboxamide] | +++ (+++ ≥6) |
| CN1CCC(NC(=O)c2ccc3c(c2)sc2nc(-c4ccc(C5CCNC5)cc4F)cn23)CC1 (stereo not shown) [Compound 505, 2-(2-fluoro-4-(pyrrolidin-3-yl)phenyl)-N-(1-methylpiperidin-4-yl)benzo[d]imidazo[2,1-b]thiazole-7-carboxamide] | +++ (+++ ≥6) |
| CN1CC(NC(=O)c2ccc3c(c2)sc2nc(-c4ccc(C5CCCN5)cc4F)cn23)C1 (stereo not shown) [Compound 506, 2-(2-fluoro-4-(pyrrolidin-2-yl)phenyl)-N-(1-methylazetidin-3-yl)benzo[d]imidazo[2,1-b]thiazole-7-carboxamide] | +++ (+++ ≥6) |
| O=C1CNC(c2ccc(-c3cn4c(n3)sc3cc(C(=O)NCCCN5CCC(F)CC5)ccc34)c(F)c2)C1 (stereo not shown) [Compound 507, 2-(2-fluoro-4-(4-oxopyrrolidin-2-yl)phenyl)-N-(3-(4-fluoropiperidin-1-yl)propyl)benzo[d]imidazo[2,1-b]thiazole-7-carboxamide] | +++ (+++ ≥6) |
| O=C(NCCCN1CCC(F)CC1)c1ccc2c(c1)sc1nc(-c3ccc(C4CCNCC4)cc3F)cn12 [Compound 508, 2-(2-fluoro-4-(piperidin-4-yl)phenyl)-N-(3-(4-fluoropiperidin-1-yl)propyl)benzo[d]imidazo[2,1-b]thiazole-7-carboxamide] | +++ (+++ ≥6) |
| O=C(NCCCN1CCC(F)CC1)c1cc2sc3nc(-c4ccc([C@H]5CCCN5)cc4F)cn3c2cn1 [Compound 509R, (R)-2-(2-fluoro-4-(pyrrolidin-2-yl)phenyl)-N-(3-(4-fluoropiperidin-1-yl)propyl)imidazo[2′,1′:2,3]thiazolo[4,5-c]pyridine-7-carboxamide] | +++ (+++ ≥6) |
| O=C(NCCCN1CCC(F)CC1)c1cc2sc3nc(-c4ccc([C@@H]5CCCN5)cc4F)cn3c2cn1 [Compound 509S, (S)-2-(2-fluoro-4-(pyrrolidin-2-yl)phenyl)-N-(3-(4-fluoropiperidin-1-yl)propyl)imidazo[2′,1′:2,3]thiazolo[4,5-c]pyridine-7-carboxamide] | +++ (+++ ≥6) |
| O=C(NC1CCOCC1)c1ccc2c(c1)sc1nc(-c3ccc(C4CCCN4)cc3F)cn12 (stereo not shown) [Compound 510, 2-(2-fluoro-4-(pyrrolidin-2-yl)phenyl)-N-(tetrahydro-2H-pyran-4-yl)benzo[d]imidazo[2,1-b]thiazole-7-carboxamide] | +++ (+++ ≥6) |
| NC(=O)c1ccc2c(c1)sc1nc(-c3ccc(C4CCNC4)cc3F)cn12 (stereo not shown) [Compound 511, 2-(2-fluoro-4-(pyrrolidin-3-yl)phenyl)benzo[d]imidazo[2,1-b]thiazole-7-carboxamide] | +++ (+++ ≥6) |
| O=C(NCCCN1CCC(F)CC1)c1ccc2c(c1)sc1nc(-c3ccc(C4(O)CCNCC4)cc3F)cn12 [Compound 512, 2-(2-fluoro-4-(4-hydroxypiperidin-4-yl)phenyl)-N-(3-(4-fluoropiperidin-1-yl)propyl)benzo[d]imidazo[2,1-b]thiazole-7-carboxamide] | +++ (+++ ≥6) |
| O=C(NCCCN1CCC(F)CC1)c1ccc2c(c1)sc1nc(-c3ccc(C4CCCNC4)cc3F)cn12 (stereo not shown) [Compound 513, 2-(2-fluoro-4-(piperidin-3-yl)phenyl)-N-(3-(4-fluoropiperidin-1-yl)propyl)benzo[d]imidazo[2,1-b]thiazole-7-carboxamide] | +++ (+++ ≥6) |
| NC(=O)c1cc2sc3nc(-c4ccc(C5CCCN5)cc4F)cn3c2cn1 (stereo not shown) [Compound 514, 2-(2-fluoro-4-(pyrrolidin-2-yl)phenyl)imidazo[2′,1′:2,3]thiazolo[4,5-c]pyridine-7-carboxamide] | +++ (+++ ≥6) |
| CNC(=O)c1cc2sc3nc(-c4ccc(C5CCCN5)cc4F)cn3c2cn1 (stereo not shown) [Compound 515, 2-(2-fluoro-4-(pyrrolidin-2-yl)phenyl)-N-methylimidazo[2′,1′:2,3]thiazolo[4,5-c]pyridine-7-carboxamide] | +++ (+++ ≥6) |
| O=C(NCCCN1CCC(F)CC1)c1ccc2c(c1)sc1nc(-c3ccc(C4(O)CCNC4)cc3F)cn12 (stereo not shown) [Compound 516, 2-(2-fluoro-4-(3-hydroxypyrrolidin-3-yl)phenyl)-N-(3-(4-fluoropiperidin-1-yl)propyl)benzo[d]imidazo[2,1-b]thiazole-7-carboxamide] | +++ (+++ ≥6) |
| CN1CCC(NC(=O)c2ccc3c(c2)sc2nc(-c4ccc(C5COCCN5)cc4F)cn23)CC1 (stereo not shown) [Compound 517, 2-(2-fluoro-4-(morpholin-3-yl)phenyl)-N-(1-methylpiperidin-4-yl)benzo[d]imidazo[2,1-b]thiazole-7-carboxamide] | +++ (+++ ≥6) |
| CN1CCC(NC(=O)c2ccc3c(c2)sc2nc(-c4ccc(C5CNCCO5)cc4F)cn23)CC1 (stereo not shown) [Compound 519, 2-(2-fluoro-4-(morpholin-2-yl)phenyl)-N-(1-methylpiperidin-4-yl)benzo[d]imidazo[2,1-b]thiazole-7-carboxamide] | +++ (+++ ≥6) |
| CN1CCC(NC(=O)c2ccc3c(c2)sc2nc(-c4ccc([C@@H]5C[C@@H](O)CN5)cc4F)cn23)CC1 [Compound 522R, 2-(2-fluoro-4-((2S,4R)-4-hydroxypyrrolidin-2-yl)phenyl)-N-(1-methylpiperidin-4-yl)benzo[d]imidazo[2,1-b]thiazole-7-carboxamide] | +++ (+++ ≥6) |
| CN1CCC(NC(=O)c2ccc3c(c2)sc2nc(-c4ccc([C@@H]5C[C@H](O)CN5)cc4F)cn23)CC1 [Compound 522S, 2-(2-fluoro-4-((2S,4S)-4-hydroxypyrrolidin-2-yl)phenyl)-N-(1-methylpiperidin-4-yl)benzo[d]imidazo[2,1-b]thiazole-7-carboxamide] | +++ (+++ ≥6) |
| O=C(NC1CCCOC1)c1ccc2c(c1)sc1nc(-c3ccc(C4CCCN4)cc3F)cn12 (stereo not shown) [Compound 525, 2-(2-fluoro-4-(pyrrolidin-2-yl)phenyl)-N-(tetrahydro-2H-pyran-3-yl)benzo[d]imidazo[2,1-b]thiazole-7-carboxamide] | +++ (+++ ≥6) |
| O=C(NC1CCOCC1)c1ccc2c(c1)sc1nc(-c3ccc(C4CCNCC4)cc3F)cn12 [Compound 529, 2-(2-fluoro-4-(piperidin-4-yl)phenyl)-N-(tetrahydro-2H-pyran-4-yl)benzo[d]imidazo[2,1-b]thiazole-7-carboxamide] | +++ (+++ ≥6) |
| O=C(NC1CCOCC1)c1ccc2c(c1)sc1nc(-c3ccc(C4COCCN4)cc3F)cn12 (stereo not shown) [Compound 534, 2-(2-fluoro-4-(morpholin-3-yl)phenyl)-N-(tetrahydro-2H-pyran-4-yl)benzo[d]imidazo[2,1-b]thiazole-7-carboxamide] | +++ (+++ ≥6) |
| O=C(NC1CCOCC1)c1ccc2c(c1)sc1nc(-c3ccc(C4CNCCO4)cc3F)cn12 (stereo not shown) [Compound 535, 2-(2-fluoro-4-(morpholin-2-yl)phenyl)-N-(tetrahydro-2H-pyran-4-yl)benzo[d]imidazo[2,1-b]thiazole-7-carboxamide] | +++ (+++ ≥6) |

— patent publication US12404283B2, “c-MYC mRNA translation modulators and uses thereof in the treatment of cancer” (Anima Biotech Inc., priority 2022, dated 2025)
